According to patent US20180162862A1 (President and Fellows of Harvard College, priority 2015, published 2018):
In brackets after ≈: the same amount, converted by molar mass.

Tests used:
[1] = system: S. aureus ATCC 29213; test: MIC test according to CLSI M7-A9, S. aureus ATCC 29213; type: cell-based; conditions: Staphylococcus aureus, ATCC29213; CLSI M7-A9, CAMHB, 24 h (Table 3); read-out: S. aureus ATCC 29213 MIC
Experimental: (§1) MIC Test (S. aureus ATCC 29213, S. aureus ATCC 43300 and S. aureus Newman)
(§2) Susceptibility testing of S. aureus ATCC 29213, ATCC 43300 and Newman was performed according to Clinical Laboratory Standard Institute (CLSI) guidelines M7-A9. Test articles were stored at room temperature prior to use, then dissolved in filtered sterile DMSO. Stock DMSO solutions were diluted further in cation-adjusted Mueller Hinton broth (CAMHB) to provide appropriate test concentrations. Cultures of S. aureus (ATCC 29213, ATCC 43300 or Newman) were added in accordance with CLSI guidelines and plates incubated at 37° C. in air for 24 h. Endpoints were determined visually (and by spectrophotometer at 600 nm) and the minimum inhibitory concentration (MIC) defined as the lowest concentration of test articles resulting in complete inhibition of visible bacterial growth. Results are detailed in Table 2 (S. aureus ATCC 29213 and ATCC 43300) and Table 3 (S. aureus ATCC 29213, ATCC 43300 and Newman).

[2] = system: S. aureus Newman; test: MIC test according to CLSI M7-A9, S. aureus Newman; type: cell-based; conditions: Staphylococcus aureus, CLSI M7-A9, CAMHB, 24 h (Table 3), read-out: S. aureus ATCC Newman MIC
Experimental: as §1, §2

Structure (SMILES) | MIC [1] [µg/mL] | MIC [2] [µg/mL]
Cc1ccc(Cc2c(=O)[nH]n3c(NCCCO)nc(-c4ccc(C(C)(C)C)cc4)nc23)cn1 [Example 113, 2-(4-tert-butylphenyl)-4-[(3-hydroxypropyl)amino]-8-[(6-methylpyridin-3-yl)methyl]-6H,7H-pyrazolo[1,5-a][1,3,5]triazin-7-one] | 32 (≈ 71.7 µM) | 32 (≈ 71.7 µM)
Cc1ccc(Cc2c(=O)[nH]n3c(NCCCN(C)C)nc(-c4ccc(C(C)(C)C)cc4)nc23)cn1 [Example 114, 2-(4-tert-butylphenyl)-4-{[3-(dimethylamino)propyl]amino}-8-[(6-methylpyridin-3-yl)methyl]-6H,7H-pyrazolo[1,5-a][1,3,5]triazin-7-one] | 64 (≈ 135 µM) | 64 (≈ 135 µM)
Cc1ccc(Cc2c(=O)[nH]n3c(NCCCN4CCc5ccccc5C4)nc(-c4ccc(C(C)(C)C)cc4)nc23)cn1 [Example 115, 2-(4-tert-butylphenyl)-8-[(6-methylpyridin-3-yl)methyl]-4-[3-(1,2,3,4-tetrahydroisoquinolin-2-yl)propyl]amino-6H,7H-pyrazolo[1,5-a][1,3,5]triazin-7-one] | 32 (≈ 57 µM) | 8 (≈ 14.2 µM)
Cc1ccc(Cc2c(=O)[nH]n3c(N4CCN(C)CC4)nc(-c4ccc(C(C)(C)C)cc4)nc23)cn1 [Example 117, 2-(4-tert-butylphenyl)-4-(4-methylpiperazin-1-yl)-8-[(6-methylpyridin-3-yl)methyl]-6H,7H-pyrazolo[1,5-a][1,3,5]triazin-7-one] | 128 (≈ 271 µM) | 128 (≈ 271 µM)
CC(C)(C)c1ccc(-c2nc(NCCCO)n3[nH]c(=O)c(CC45CC6CC(CC(C6)C4)C5)c3n2)cc1 [Example 119, 8-(adamantan-1-ylmethyl)-2-(4-tert-butylphenyl)-4-[(3-hydroxypropyl)amino]-6H,7H-pyrazolo[1,5-a][1,3,5]triazin-7-one] | 16 (≈ 32.7 µM) | 16 (≈ 32.7 µM)

These reach a lower MIC [1]. Values come first.

MIC [1] [µg/mL] | MIC [2] [µg/mL] | Structure (SMILES)
4 (≈ 7.45 µM) | 1 (≈ 1.86 µM) | CC(C)(C)c1ccc(-c2nc(NCCCNC3Cc4ccccc4C3)n3[nH]c(=O)c(Cc4c[nH]cn4)c3n2)cc1 [Example 109, 2-(4-tert-butylphenyl)-4-({3-[(2,3-dihydro-1H-inden-2-yl)amino]propyl}amino)-8-(1H-imidazol-4-ylmethyl)-6H,7H-pyrazolo[1,5-a][1,3,5]triazin-7-one]
4 (≈ 9.53 µM) | 2 (≈ 4.77 µM) | CCCCNc1nc(-c2ccc(C(C)(C)C)cc2)nc2c(Cc3c[nH]cn3)c(=O)[nH]n12 [Example 110, 4-(butylamino)-2-(4-tert-butylphenyl)-8-(1H-imidazol-4-ylmethyl)-6H,7H-pyrazolo[1,5-a][1,3,5]triazin-7-one]
4 (≈ 8.31 µM) | 2 (≈ 4.15 µM) | CC(C)(C)c1ccc(-c2nc(NCCCc3ccccc3)n3[nH]c(=O)c(Cc4c[nH]cn4)c3n2)cc1 [Example 111, 2-(4-tert-butylphenyl)-8-(1H-imidazol-4-ylmethyl)-4-[(3-phenylpropyl)amino]-6H,7H-pyrazolo[1,5-a][1,3,5]triazin-7-one]
4 (≈ 7.12 µM) | 4 (≈ 7.12 µM) | Cc1ccc(Cc2c(=O)[nH]n3c(NCCCNC4Cc5ccccc5C4)nc(-c4ccc(C(C)(C)C)cc4)nc23)cn1 [Example 116, 2-(4-tert-butylphenyl)-4-({3-[(2,3-dihydro-1H-inden-2-yl)amino]propyl}amino)-8-[(6-methylpyridin-3-yl)methyl]-6H,7H-pyrazolo[1,5-a][1,3,5]triazin-7-one]
8 (≈ 17.8 µM) | 0.5 (≈ 1.11 µM) | CC(C)(C)c1ccc(-c2nc3c(CC45CC6CC(CC(C6)C4)C5)c(=O)[nH]n3c(=S)[nH]2)cc1 [Example 118, 8-(adamantan-1-ylmethyl)-2-(4-tert-butylphenyl)-4-sulfanylidene-3H,4H,6H,7H-pyrazolo[1,5-a][1,3,5]triazin-7-one]
1 (≈ 1.94 µM) | 1 (≈ 1.94 µM) | CN(C)CCCNc1nc(-c2ccc(C(C)(C)C)cc2)nc2c(CC34CC5CC(CC(C5)C3)C4)c(=O)[nH]n12 [Example 120, 8-(adamantan-1-ylmethyl)-2-(4-tert-butylphenyl)-4-{[3-(dimethylamino)propyl]amino}-6H,7H-pyrazolo[1,5-a][1,3,5]triazin-7-one]
